Data: ChEMBL document CHEMBL5126606, “Sodium-Glucose Cotransporter Inhibitors as Antidiabetic Drugs: Current Development and Future Perspectives” (J Med Chem, 2022)
One block for each compound: values may come before it.

How the values were obtained:
[1] = biological target: T1, Sodium/glucose cotransporter 2 (Homo sapiens, UniProt P31639); experiment: Inhibition of recombinant human SGLT2 expressed in COS-7 cells assessed as inhibition of [14C]AMG uptake; assay type: cell-based
T1 sequence (P31639 whole entry): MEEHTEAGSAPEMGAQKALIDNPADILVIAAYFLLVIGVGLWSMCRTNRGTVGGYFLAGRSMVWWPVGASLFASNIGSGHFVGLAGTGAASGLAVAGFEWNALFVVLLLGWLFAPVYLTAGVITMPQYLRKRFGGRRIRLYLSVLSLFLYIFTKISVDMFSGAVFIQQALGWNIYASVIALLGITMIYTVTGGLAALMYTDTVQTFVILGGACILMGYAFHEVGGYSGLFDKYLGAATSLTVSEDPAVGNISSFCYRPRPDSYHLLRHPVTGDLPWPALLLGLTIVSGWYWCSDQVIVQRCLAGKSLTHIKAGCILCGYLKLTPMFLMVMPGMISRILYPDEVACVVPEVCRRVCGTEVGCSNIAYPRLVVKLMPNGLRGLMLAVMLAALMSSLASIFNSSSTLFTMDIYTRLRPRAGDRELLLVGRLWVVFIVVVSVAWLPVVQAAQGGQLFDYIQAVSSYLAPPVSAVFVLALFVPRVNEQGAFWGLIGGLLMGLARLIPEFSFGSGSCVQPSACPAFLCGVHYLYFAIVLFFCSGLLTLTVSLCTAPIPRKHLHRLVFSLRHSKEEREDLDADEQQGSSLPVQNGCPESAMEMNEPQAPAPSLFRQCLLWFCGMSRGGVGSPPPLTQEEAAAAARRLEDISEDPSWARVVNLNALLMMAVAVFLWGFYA

[2] = biological target: T1, Sodium/glucose cotransporter 2; experiment: Inhibition of human SGLT2 expressed in CHO cells assessed as inhibition of [14C] labeled AMG accumulation incubated for 15 mins; assay type: cell-based
[3] = biological target: T2, Sodium/glucose cotransporter 1 (Homo sapiens, UniProt P13866); experiment: Inhibition of human SGLT1 expressed in CHO cells assessed as inhibition of [14C] labeled AMG accumulation incubated for 15 mins; assay type: cell-based
T2 sequence (P13866 whole entry): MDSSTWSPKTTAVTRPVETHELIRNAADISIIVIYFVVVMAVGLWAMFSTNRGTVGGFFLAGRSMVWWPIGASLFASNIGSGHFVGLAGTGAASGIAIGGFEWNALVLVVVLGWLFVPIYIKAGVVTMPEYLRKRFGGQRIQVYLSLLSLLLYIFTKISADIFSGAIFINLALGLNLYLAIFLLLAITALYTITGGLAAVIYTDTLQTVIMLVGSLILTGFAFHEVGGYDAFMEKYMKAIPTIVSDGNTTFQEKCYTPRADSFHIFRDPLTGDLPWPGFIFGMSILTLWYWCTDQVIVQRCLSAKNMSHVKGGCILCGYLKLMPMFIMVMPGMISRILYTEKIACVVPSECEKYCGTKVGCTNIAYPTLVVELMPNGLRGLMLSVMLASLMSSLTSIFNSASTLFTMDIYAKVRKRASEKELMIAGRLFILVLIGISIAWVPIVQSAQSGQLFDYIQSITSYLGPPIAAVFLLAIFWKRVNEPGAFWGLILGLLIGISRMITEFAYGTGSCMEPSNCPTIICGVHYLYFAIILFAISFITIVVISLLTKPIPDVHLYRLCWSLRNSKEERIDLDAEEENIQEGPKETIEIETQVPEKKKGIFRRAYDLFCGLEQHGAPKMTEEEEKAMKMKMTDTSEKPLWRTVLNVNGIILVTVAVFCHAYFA

[4] = biological target: T1, Sodium/glucose cotransporter 2; experiment: Inhibition of human SGLT2 expressed in CHO-K1 cells; assay type: cell-based
[5] = biological target: T2, Sodium/glucose cotransporter 1; experiment: Inhibition of full length N-terminal HA-tagged human SGLT1 expressed in HEK293 cells assessed as inhibition of [14C]AMG uptake; assay type: cell-based
[6] = biological target: T1, Sodium/glucose cotransporter 2; experiment: Inhibition of full length N-terminal HA-tagged human SGLT2 expressed in HEK293 cells assessed as inhibition of [14C]AMG uptake; assay type: cell-based
Homo sapiens = species on record: Homo sapiens; experiment: Selectivity ratio of IC50 for full length N-terminal HA-tagged human SGLT1 expressed in HEK293 cells to IC50 for full length N-terminal HA-tagged human SGLT2 expressed in HEK293 cells; assay type: cell-based
[7] = Oral bioavailability in C57BL/6J mouse at 10 mg/kg measured upto 24 hrs by LC-MS/MS analysis; assay type: ADME, organism-based; conditions: in vivo
[8] = Half life in C57BL/6J mouse at 10 mg/kg,po measured upto 24 hrs by LC-MS/MS analysis; assay type: ADME, organism-based; conditions: in vivo
[9] = biological target: T1, Sodium/glucose cotransporter 2; experiment: Inhibition of human SGLT2 expressed in xenopus oocytes assessed as inhibition of [14C]AMG uptake; assay type: cell-based, Oocyte
[10] = biological target: T1, Sodium/glucose cotransporter 2; experiment: Inhibition of human SGLT2

Ki [1]: 13.6 µM
Compound: Cc1cc(OCCCNCCC(N)=O)ccc1Cc1c(O[C@@H]2O[C@H](CO)[C@@H](O)[C@H](O)[C@H]2O)n[nH]c1C(C)C

EC50 [2]: 0.063 µM
Compound: COC(=O)NNC[C@H]1O[C@@H](n2cc(Cc3ccc(C4CC4)cc3)c3c(Cl)cccc32)[C@H](O)[C@@H](O)[C@@H]1O

EC50 [2]: 0.286 µM
Compound: CO/N=C/[C@H]1O[C@@H](n2cc(Cc3ccc(C4CC4)cc3)c3c(Cl)cccc32)[C@H](O)[C@@H](O)[C@@H]1O

EC50 [3]: 0.037 µM
EC50 [2]: 0.033 µM
Compound: CC(=O)NNC[C@H]1O[C@@H](n2cc(Cc3ccc(C4CC4)cc3)c3c(Cl)cccc32)[C@H](O)[C@@H](O)[C@@H]1O

EC50 [2]: 0.258 µM
Compound: O=C(N/N=C/[C@H]1O[C@@H](n2cc(Cc3ccc(C4CC4)cc3)c3c(Cl)cccc32)[C@H](O)[C@@H](O)[C@@H]1O)c1ccccc1

EC50 [2]: 0.212 µM
Compound: O/N=C/[C@H]1O[C@@H](n2cc(Cc3ccc(C4CC4)cc3)c3c(Cl)cccc32)[C@H](O)[C@@H](O)[C@@H]1O

Ki [4]: 0.151 µM
Compound: CCOC(=O)OC[C@H]1O[C@@H](Oc2ccccc2Cc2ccc(OC)cc2)[C@H](O)[C@@H](O)[C@@H]1O [SERGLIFLOZIN ETABONATE]

EC50 [2]: 0.455 µM
Compound: CONC[C@H]1O[C@@H](n2cc(Cc3ccc(C4CC4)cc3)c3c(Cl)cccc32)[C@H](O)[C@@H](O)[C@@H]1O

IC50 [5]: 0.0159 µM
IC50 [6]: 0.0021 µM
bioavailability [7]: 87%
half-life [8]: 7 h
Compound: COc1ccc(Cc2cc([C@H]3O[C@@H](SC)[C@H](O)[C@@H](O)[C@@H]3O)ccc2Cl)cc1
Ratio IC50 (Homo sapiens): 7.6

EC50 [9]: 0.0052 µM
Compound: Cc1cc(O)c(C(=O)CCc2ccc3occc3c2)c(O[C@@H]2O[C@H](CO)[C@@H](O)[C@H](O)[C@H]2O)c1

IC50 [10]: 0.0018 µM
Compound: CCOc1ccc(Cc2cc([C@H]3O[C@@H](SC)[C@H](O)[C@@H](O)[C@@H]3O)ccc2Cl)cc1
